Measurements published in patent US20090197856A1, “ANTIVIRAL COMPOUNDS” (Genelabs Technologies, Inc., priority 2007, published 2009).

target: T1, HCV-NS5b (Hepatitis C virus genotype 1b, UniProt Q9WMX2); assay: HCV-NS5b enzyme assay using homopolymer substrate; assay type: biochemical; settings: not given
T1 construct: (His)6 (C); made in house; host or cells: XL-1 cells (E. coli), IPTG-inducible plasmid
From the text: The coding sequence of NS5b protein was cloned by PCR from pFKI389luc/NS3-3′/ET as described by Lohmann, V., et al. (1999) Science 285, 110-113 using the primers shown on page 266 of WO 2005/012288
The cloned fragment is missing the C terminus 21 amino acid residues. The cloned fragment was inserted into an IPTG-inducible (isopropyl-β-D-thiogalactopyranoside) expression plasmid that provides an epitope tag (His)6 at the carboxy terminus of the protein.
The recombinant enzyme was expressed in XL-1 cells and after induction of expression, the protein was purified using affinity chromatography on a nickel-NTA (nitrilotriacetic acid) column. Storage condition was 10 mM Tris-HCl pH 7.5, 50 mM NaCl, 0.1 mM EDTA (ethylenediaminetetraacetic acid), 1 mM DTT (dithiothreotol), 20% glycerol at −20° C.
The polymerase activity was assayed by measuring incorporation of radiolabeled UTP into a RNA product using a biotinylated, homopolymeric template. The template was formed by annealing adenosine homopolymer to uridine 20-mer capped with a 5′-biotin group (biotin-U^20) in the ratio of 1:4. Typically, the assay mixture (50 μL) contained 25 mM Tris-HCl (pH 7.5), 40 mM KCl, 0.3 mM MgCl2, 0.05 mM EDTA, 0.2 unit/μL Superase RNAse Inhibitor, 5 mM DTT, 30 μM UTP (Uridine triphosphate), including [^3H]-UTP (uridine triphosphate) at 0.4 μCi/μL with final concentration of 1 μM, and 50 nM of homopolymeric template. Test compounds were initially dissolved in 100% DMSO and further diluted in aqueous buffer containing 5% DMSO. Typically, compounds were tested at concentrations between 2 nM and 50 μM. Reactions were started with addition of enzyme and allowed to continue at 30° C. for 90 minutes. Reactions were quenched with 8 μL of 100 mM EDTA and reaction mixtures (30 μL) were transferred to streptavidin-coated scintillation proximity microtiter plates (FlashPlates) and incubated at room temperature overnight. Incorporation of radioactivity was determined by scintillation counting.
Inhibitor IC50 values were determined by adding test compound as ten point, two-fold serial dilutions in 100% DMSO with a final reaction concentration of 5%. IC50 was calculated by plotting the % inhibition against compound concentration and fitting the data to a constrained four parameter sigmoidal curve, equivalent to the “four parameter logistic equation”:
Where Bottom is the minimum Y value, Top is the maximum Y value, and Hillslope is the slope of the linear portion of the semi-log curve. Top and Bottom were constrained to values of 0% and 100%, respectively. These analyses were performed using Graphpad Prism v.4.0 (Graphpad Software, Inc.) in conjunction with DS Accord for EXCEL 6.0 (Accelrys, Microsoft Corp.).
The table below lists the IC50 values of compounds determined using the homopolymer substrates.

In order of rising IC50:
1. O=C(O)c1ccc2c(C3CCCCC3)c3n(c2c1)CCCn1cc(C(=O)C(=O)N2CCCCC2)c2cccc-3c21 [Compound 114]  89 nM
2. CN1CCN(C(=O)C(=O)c2cn3c4c(cccc24)-c2c(C4CCCCC4)c4ccc(C(=O)O)cc4n2CCC3)CC1 [Compound 123]  155 nM

same assay, conditions: homopolymer substrate, [3H]-UTP incorporation, 30° C., 90 minutes; read-out: IC50

In order of rising IC50:
1. O=C(O)c1ccc2c(C3CCCCC3)c3n(c2c1)CCCn1cc(CN2CCOCC2)c2cccc-3c21 [Compound 107]  19 nM
2. O=C(O)c1ccc2c(C3CCCCC3)c3n(c2c1)CCn1cc(CN2CCCCC2)c2cccc-3c21 [Compound 118]  48 nM
3. O=C(O)c1ccc2c(C3CCCCC3)c3n(c2c1)CCCn1cc(CN2CCCC2)c2cccc-3c21 [Compound 121]  49 nM
4. O=C(O)c1ccc2c(C3CCCCC3)c3n(c2c1)CCn1cc(CN2CCOCC2)c2cccc-3c21 [Compound 122]  51 nM
5. CCCNC1CCN2CCn3c(c(C4CCCCC4)c4ccc(C(=O)O)cc43)-c3cccc1c32 (stereo not drawn) [Compound 277]  56 nM
6. CCN(C)Cc1cn2c3c(cccc13)-c1c(C3CCCCC3)c3ccc(C(=O)O)cc3n1CC2 [Compound 351]  56 nM
7. O=C(O)c1ccc2c(C3CCCCC3)c3n(c2c1)CCN1CCC(NC2CCOCC2)c2cccc-3c21 (stereo not drawn) [Compound 282]  59 nM
8. CC(C)NC1CCN2CCn3c(c(C4CCCCC4)c4ccc(C(=O)O)cc43)-c3cccc1c32 (stereo not drawn) [Compound 276]  65 nM
9. CCN(CC)Cc1cn2c3c(cccc13)-c1c(C3CCCCC3)c3ccc(C(=O)O)cc3n1CC2 [Compound 350]  65 nM
10. CN1CCN(Cc2cn3c4c(cccc24)-c2c(C4CCCCC4)c4ccc(C(=O)O)cc4n2CCC3)CC1 [Compound 125]  68 nM
11. CN(C)C1CCN2CCn3c(c(C4CCCCC4)c4ccc(C(=O)O)cc43)-c3cccc1c32 (stereo not drawn) [Compound 285, 15-Cyclohexyl-4-(dimethylamino)-5,6,8,9-tetrahydro-4H-indolo[1′,2′:4,5][1,4]diazepino[6,7,1-ij]quinoline-12-carboxylic acid]  79 nM
12. CN(C)Cc1cn2c3c(cccc13)-c1c(C3CCCCC3)c3ccc(C(=O)O)cc3n1CC2 [Compound 108]  83 nM
13. O=C(O)c1ccc2c(C3CCCCC3)c3n(c2c1)CCCn1cc(CN2CCC2)c2cccc-3c21 [Compound 113]  84 nM
14. CCN(CC)Cc1cn2c3c(cccc13)-c1c(C3CCCCC3)c3ccc(C(=O)O)cc3n1CCC2 [Compound 120]  85 nM
15. COC1CCN(Cc2cn3c4c(cccc24)-c2c(C4CCCCC4)c4ccc(C(=O)O)cc4n2CCC3)CC1 [Compound 115]  87 nM
16. CC(=O)N1CCN(Cc2cn3c4c(cccc24)-c2c(C4CCCCC4)c4ccc(C(=O)O)cc4n2CCC3)CC1 [Compound 365]  88 nM
17. O=C(O)c1ccc2c(C3CCCCC3)c3n(c2c1)CCCn1cc(CN2CCC(F)CC2)c2cccc-3c21 [Compound 352]  89 nM
18. CC(C)NCc1cn2c3c(cccc13)-c1c(C3CCCCC3)c3ccc(C(=O)O)cc3n1CCC2 [Compound 110]  96 nM
19. O=C(O)c1ccc2c(C3CCCCC3)c3n(c2c1)CCCn1cc(CN2CC[C@@H](F)C2)c2cccc-3c21 [Compound 126]  96 nM
20. CCN(C)Cc1cn2c3c(cccc13)-c1c(C3CCCCC3)c3ccc(C(=O)O)cc3n1CCC2 [Compound 129]  96 nM
21. O=C(O)c1ccc2c(C3CCCCC3)c3n(c2c1)CCn1cc(CCN2CCCCC2)c2cccc-3c21 [Compound 349]  98 nM
22. O=C(O)c1ccc2c(C3CCCCC3)c3n(c2c1)CCCn1cc(CN2CCSCC2)c2cccc-3c21 [Compound 128]  101 nM
23. CN(C)Cc1cn2c3c(cccc13)-c1c(C3CCCCC3)c3ccc(C(=O)O)cc3n1CCC2 [Compound 111]  106 nM
24. CC1CCN(Cc2cn3c4c(cccc24)-c2c(C4CCCCC4)c4ccc(C(=O)O)cc4n2CCC3)CC1 [Compound 117]  108 nM
25. CN(C)Cc1cn2c3c(cccc13)-c1c(C3CCCCC3)c3ccc(C(=O)O)cc3n1CCCC2 [Compound 112]  109 nM
26. O=C(O)c1ccc2c(C3CCCCC3)c3n(c2c1)CCCn1cc(CN2CCCC(F)C2)c2cccc-3c21 (stereo not drawn) [Compound 353]  109 nM
27. O=C(O)c1ccc2c(C3CCCCC3)c3n(c2c1)CCCn1cc(CN2CC[C@H](F)C2)c2cccc-3c21 [Compound 354]  110 nM
28. CC1CCCN(Cc2cn3c4c(cccc24)-c2c(C4CCCCC4)c4ccc(C(=O)O)cc4n2CCC3)C1 (stereo not drawn) [Compound 130]  111 nM
29. CC1CN(Cc2cn3c4c(cccc24)-c2c(C4CCCCC4)c4ccc(C(=O)O)cc4n2CCC3)CC(C)O1 (stereo not drawn) [Compound 330]  113 nM
30. O=C(O)c1ccc2c(C3CCCCC3)c3n(c2c1)CCCn1cc(CN2CCCCC2)c2cccc-3c21 [Compound 119]  114 nM
31. COC1CCCN(Cc2cn3c4c(cccc24)-c2c(C4CCCCC4)c4ccc(C(=O)O)cc4n2CCC3)C1 (stereo not drawn) [Compound 124]  114 nM
32. O=C(O)c1ccc2c(C3CCCCC3)c3n(c2c1)CCCn1cc(CCN2CCCCC2)c2cccc-3c21 [Compound 204]  118 nM
33. CCN(CC)Cc1cn2c3c(ccc(F)c13)-c1c(C3CCCCC3)c3ccc(C(=O)O)cc3n1CCC2 [Compound 346]  119 nM
34. CCN1CCN(Cc2cn3c4c(cccc24)-c2c(C4CCCCC4)c4ccc(C(=O)O)cc4n2CCC3)CC1 [Compound 356]  120 nM
35. CCCNCc1cn2c3c(cccc13)-c1c(C3CCCCC3)c3ccc(C(=O)O)cc3n1CCC2 [Compound 366]  121 nM
36. CCN(C)Cc1cn2c3c(ccc(F)c13)-c1c(C3CCCCC3)c3ccc(C(=O)O)cc3n1CCC2 [Compound 347]  122 nM
37. O=C(O)c1ccc2c(C3CCCCC3)c3n(c2c1)CCCn1cc(CN(CCO)CCO)c2cccc-3c21 [Compound 363]  124 nM
38. O=C(O)c1ccc2c(C3CCCCC3)c3n(c2c1)CCCn1cc(CN2CCCCC2)c2c(F)ccc-3c21 [Compound 345]  127 nM
39. O=C(O)c1ccc2c(C3CCCCC3)c3n(c2c1)CCCCn1cc(CN2CCCCC2)c2cccc-3c21 [Compound 105]  131 nM
40. O=C(O)c1ccc2c(C3CCCCC3)c3n(c2c1)CCCn1ccc2c(F)ccc-3c21 [Compound 344]  133 nM
41. C=C1Cn2cc(CN3CCCCC3)c3cccc(c32)-c2c(C3CCCCC3)c3ccc(C(=O)O)cc3n2C1 [Compound 341]  135 nM
42. O=C(O)c1ccc2c(C3CCCCC3)c3n(c2c1)CCCn1cc(CN2CCCCO2)c2cccc-3c21 [Compound 116]  138 nM
43. CN1CCN(Cc2cn3c4c(ccc(F)c24)-c2c(C4CCCCC4)c4ccc(C(=O)O)cc4n2CCC3)CC1 [Compound 348]  143 nM
44. O=C(O)c1ccc2c(C3CCCCC3)c3n(c2c1)CCCn1cc(CNC2CCOCC2)c2cccc-3c21 [Compound 360]  149 nM
45. CSCCNCc1cn2c3c(cccc13)-c1c(C3CCCCC3)c3ccc(C(=O)O)cc3n1CCC2 [Compound 358]  153 nM
46. O=C(O)c1ccc2c(C3CCCCC3)c3n(c2c1)CCCn1cc(CN2CCCC(O)C2)c2cccc-3c21 (stereo not drawn) [Compound 359]  155 nM
47. CCN(Cc1cn2c3c(cccc13)-c1c(C3CCCCC3)c3ccc(C(=O)O)cc3n1CCC2)C(C)C [Compound 361]  176 nM
48. O=C(O)c1ccc2c(C3CCCCC3)c3n(c2c1)CCCn1cc(CNC2CC2)c2cccc-3c21 [Compound 131]  208 nM
49. CCC(CC)NCc1cn2c3c(cccc13)-c1c(C3CCCCC3)c3ccc(C(=O)O)cc3n1CCC2 [Compound 132]  223 nM
50. CC1CCC(NCc2cn3c4c(cccc24)-c2c(C4CCCCC4)c4ccc(C(=O)O)cc4n2CCC3)CC1 (stereo not drawn) [Compound 364]  277 nM
51. CN(C)CCc1cn2c3c(cccc13)-c1c(C3CCCCC3)c3ccc(C(=O)O)cc3n1CCC2 [Compound 214]  278 nM
52. O=C(O)c1ccc2c(C3CCCCC3)c3n(c2c1)CC(CO)Cn1ccc2cccc-3c21 (racemic) [Compound 377]  280 nM
53. O=C(O)c1ccc2c(C3CCCCC3)c3n(c2c1)CCCn1cc(CN2CCC(F)(F)CC2)c2cccc-3c21 [Compound 127]  290 nM
54. COCCN(CCOC)Cc1cn2c3c(cccc13)-c1c(C3CCCCC3)c3ccc(C(=O)O)cc3n1CCC2 [Compound 362]  337 nM
55. CCN(C)Cc1cn2c3c(cccc13)-c1c(C3CCCCC3)c3ccc(C(=O)O)cc3n1CCC2 [Compound 337]  1290 nM
